In US20210395210A1, “INHIBITION OF BACTERIAL CHAPERONIN SYSTEMS” (THE TRUSTEES OF INDIANA UNIVERSITY, priority 2018, published 2021):
Where two headings read alike, the source gives them in different places.

Experiments:
native MDH = target: T1, native MDH (Sus scrofa, UniProt P00346); assay: Counter-screen for inhibition of native MDH enzymatic activity; type: biochemical, pig; conditions: for inhibition of native MDH enzymatic activity (in words): false-positive counter-screen
T1 construct: soluble pig heart MDH from Roche, product #10127248001; purchased Roche 10127248001; host or cells: pig heart
T1 sequence (P00346 25-338): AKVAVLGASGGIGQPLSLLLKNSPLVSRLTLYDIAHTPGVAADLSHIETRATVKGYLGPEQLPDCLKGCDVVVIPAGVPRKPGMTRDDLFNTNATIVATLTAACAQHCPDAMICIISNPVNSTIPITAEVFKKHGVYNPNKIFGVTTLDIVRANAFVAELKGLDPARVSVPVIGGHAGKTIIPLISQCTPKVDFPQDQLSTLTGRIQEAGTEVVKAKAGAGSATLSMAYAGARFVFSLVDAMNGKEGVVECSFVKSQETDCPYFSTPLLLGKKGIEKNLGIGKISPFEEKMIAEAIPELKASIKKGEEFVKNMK
How it was run: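 Compounds were added only after GroEL/ES-mediated MDH refolding (45 min, 37 °C) had been EDTA-quenched, so only refolded MDH activity is probed.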

[1] = system: Drug sensitive Staphylococcus aureus (ATCC 25923); assay: Bacterial proliferation assay, drug sensitive S. aureus; type: cell-based
Text: (§1) Bacterial Strains: Enterococcus faecium—(Orla-Jensen) Schleifer and Kilpper-Balz strain NCTC 7171 (ATCC 19434); Drug sensitive Staphylococcus aureus—Rosenbranch strain Seattle 1945 (ATCC 25923); Methicillin resistant S. aureus (MRSA)—Rosenbach strain HPV107 (ATCC BAA-44); Klebsiella Pneumonia—(Schroeter) Trevisan strain NCTC 9633 (ATCC 13883); Acinetobacter baumannii—Bouvet and Grimont strain 2208 (ATCC 19606); Pseudomonas aeruginosa—(Schroeter) Migula strain NCTC 10332 (ATCC 10145); Enterobacter cloacae—E. cloacae, subsp. cloacae (Jordan) Hormaeche and Edwards strain CDC 442-68 (ATCC 13047).
(§2) Growth Media: All bacteria were grown in Brain Heart Infusion (BHI) broth/agar (Becton, Dickinson and Company). All liquid cultures were grown in BHI media supplemented with 25 mg/L Ca^2+ and 12.5 mg/L Mg^2+ to mimic free physiological concentrations of these cations. A 10 mg/mL Ca^2+ stock solution was prepared by dissolving 3.68 g of CaCl2.2H2O in 100 mL of deionized water, and a 10 mg/mL Mg^2+ stock solution was prepared by dissolving 8.36 g of MgCl2.6H2O in 100 mL deionized water. Both stock solutions were filter-sterilized using 0.2 μm pore size cellulose-acetate filters. 2.5 mL of the sterile 10 mg/mL Ca^2+ stock and 1.25 mL of the sterile 10 mg/mL Mg^2+ stock solutions were added per 1 L of autoclaved BHI medium to obtain 25 mg/L Ca^2+ and 12.5 mg/L Mg^2+ ions, respectively.
(§3) General Assay Protocol: Stock bacterial cultures were streaked onto BHI agar plates and grown overnight at 37° C. Fresh aliquots of broth were inoculated with single bacterial colonies and the cultures were grown overnight at 37° C. with shaking (240 rpm) in cation adjusted BHI media. The following morning, the overnight cultures were sub-cultured (1:5 dilution) into fresh aliquots of cation adjusted BHI media and grown at 37° C. for 1-2 hours with shaking. After 2 h, cultures were diluted into fresh media to achieve final OD600 readings of 0.017. Aliquots of these diluted cultures (30 μL) were added to clear, flat-bottom, 384-well polystyrene plates that were stamped with 0.5 μL of test compounds in 20 μL media. […] Plates were sealed with “Breathe Easy” oxygen permeable membranes (Diversified Biotech) and left to incubate at 37° C. without shaking (stagnant assay). OD600 nm readings were taken at either 6-8 h (S. aureus, MRSA, K. pneumonia, E. cloacae, and P. aeruginosa) or 24 h (E. faecium and A. baumannii). A second set of baseline control plates were prepared analogously, but without any bacteria added, to correct for possible compound absorbance and/or precipitation. Plates were then read at 600 nm using a Molecular Devices SpectraMax Plus384 microplate reader. […] Results presented represent the averages of EC50 values obtained from at quadriplicate (duplicate of duplicate) replicates.

[2] = system: Methicillin resistant S. aureus (MRSA) (ATCC BAA-44); assay: Bacterial proliferation assay, MRSA; type: cell-based, Staphylococcus aureus; conditions: Staphylococcus aureus
Text: as §1, §2, §3

[3] = system: Enterobacter cloacae (ATCC 13047); assay: Bacterial proliferation assay, E. cloacae; type: cell-based
Text: as §1, §2, §3

[4] = log of IC50 (μM scale), with standard deviation
[5] = ATCC25923, read-out: Bacterial Proliferation EC50 S. aureus Sensitive
[6] = ATCC25923, read-out: log(EC50) Bacterial Proliferation Assay S. aureus Sensitive (converted)
[7] = read-out: Bacterial Proliferation EC50 S. aureus Resistant
[8] = read-out: log(EC50) Bacterial Proliferation Assay S. aureus Resistant (converted)
[9] = ATCC13047, read-out: Bacterial Proliferation EC50 E. cloacae
[10] = ATCC13047, read-out: log(EC50) Bacterial Proliferation Assay E. cloacae (converted)
[11] = log of IC50 (μM scale), with standard deviation, read-out: log(IC50) Native MDH Reporter (converted)
[12] = read-out: Biochemical Assay IC50 Native MDH Reporter
[13] = ATCC25923, OD600 at 6-8 h, read-out: Bacterial Proliferation EC50 S. aureus Sensitive
[14] = ATCC25923, log of EC50 (μM scale), with standard deviation, read-out: log(EC50) Bacterial Proliferation Assay S. aureus Sensitive (converted)
[15] = MRSA, OD600 at 6-8 h, read-out: Bacterial Proliferation EC50 S. aureus Resistant
[16] = MRSA, log of EC50 (μM scale), with standard deviation, read-out: log(EC50) Bacterial Proliferation Assay S. aureus Resistant (converted)
[17] = ATCC13047, OD600 at 6-8 h, read-out: Bacterial Proliferation EC50 E. cloacae
[18] = ATCC13047, log of EC50 (μM scale), with standard deviation, read-out: log(EC50) Bacterial Proliferation Assay E. cloacae (converted)

Row | SMILES | inhibition of native MDH enzymatic activity (in words) (native MDH) | log(IC50) Native MDH Reporter (native MDH; [4]) | EC50 [1, 5] [µM] | EC50 ([1]; ATCC25923, read-out: S. aureus Proliferation & Biofilm Assay EC50 Planktonic Growth) [µM] | EC50 [1, 6] [µM] | EC50 [2, 7] [µM] | EC50 [2, 8] [µM] | EC50 [3, 9] [µM] | EC50 [3, 10] [µM] | IC50 (native MDH; [11]) [µM] | IC50 (native MDH; [12]) [µM] | EC50 [1, 13] [µM] | EC50 [1, 14] [µM] | EC50 [2, 15] [µM] | EC50 [2, 16] [µM] | EC50 [3, 17] [µM] | EC50 [3, 18] [µM] | IC50 (native MDH; Biochemical Assay IC50 Native MDH Reporter) [µM] | IC50 (native MDH; log(IC50) Native MDH Reporter, log of IC50 (μM scale), with standard deviation) [µM]
1 | O=C(Nc1ccc(Sc2nc3ccccc3s2)c(Cl)c1)c1cc(Br)cc(Br)c1O [Compound 1, N-(4-(Benzo[d]thiazol-2-ylthio)-3-chlorophenyl)-3,5-dibromo-2-hydroxybenzamide] | inhibit native MDH | 0.83 ± 0.25 | 0.36 | 0.36 | 0.363 | 0.55 | 0.55 | > 100 | > 100 |  |  |  |  |  |  |  |  |  | 
2 | CC1(C)S[C@@H]2[C@H](NC(=O)[C@H](N)c3ccccc3)C(=O)N2[C@H]1C(=O)O [Ampicillin, ampicillin, reference compound] |  |  |  |  |  |  |  |  |  | > 63.1 | > 63 | 0.19 | 0.195 | > 100 | > 100 | > 100 | > 100 |  | 
3 | COc1c(Br)cc(Br)cc1C(=O)Nc1ccc(Sc2nc3ccccc3s2)c(Cl)c1 [Compound 29, N-(4-(Benzo[d]thiazol-2-ylthio)-3-chlorophenyl)-3,5-dibromo-2-methoxybenzamide] |  |  |  |  |  |  |  |  |  | > 63.1 | > 63 | > 100 | > 100 |  | > 100 | > 100 | > 100 |  | 
4 | O=C(Nc1ccccc1)c1cc(Br)ccc1O [Compound 15, 5-Bromo-2-hydroxy-N-phenylbenzamide] |  |  |  |  |  |  |  |  |  | > 63.1 | > 63 | 2.8 | 2.75 | 4.1 | 4.07 | > 100 | > 100 |  | 
5 | COc1c(Br)cccc1C(=O)Nc1ccc(Sc2nc3ccccc3s2)cc1 [Compound 34, N-(4-(Benzo[d]thiazol-2-ylthio)phenyl)-3-bromo-2-methoxybenzamide] |  |  |  |  |  |  |  |  |  | > 63.1 | > 63 | > 100 | > 100 |  | > 100 | > 100 | > 100 |  | 
6 | O=C(Nc1ccc(Sc2nc3ccccc3s2)cc1)c1ccccc1O [Compound 8, N-(4-(Benzo[d]thiazol-2-ylthio)phenyl)-2-hydroxybenzamide] |  |  |  |  |  |  |  |  |  | > 63.1 | > 63 | 0.2 | 0.204 | 0.41 | 0.407 | > 100 | > 100 |  | 
7 | COc1ccc(Br)cc1C(=O)Nc1cccc(Cl)c1 [Compound 39, 5-Bromo-N-(3-chlorophenyl)-2-methoxybenzamide] |  |  |  |  |  |  |  |  |  | > 63.1 | > 63 | > 100 | > 100 |  | > 100 | > 100 | > 100 |  | 
8 | O=C(Nc1ccc(Sc2nc3ccccc3s2)c(Cl)c1)c1cccc(Br)c1 [Compound 18, N-(4-(Benzo[d]thiazol-2-ylthio)-3-chlorophenyl)-3-bromobenzamide] |  |  |  |  |  |  |  |  |  | > 63.1 | > 63 | > 100 | > 100 |  | > 100 | > 100 | > 100 |  | 
9 | COc1c(Br)cccc1C(=O)Nc1cccc(Cl)c1 [Compound 38] |  |  |  |  |  |  |  |  |  | > 63.1 | > 63 | > 100 | > 100 |  | > 100 | > 100 | > 100 |  | 
10 | O=C(Nc1ccc(Sc2nc3ccccc3s2)cc1)c1cccc(Br)c1O [Compound 6, N-(4-(Benzo[d]thiazol-2-ylthio)phenyl)-3-bromo-2-hydroxybenzamide] | inactive against the reporter enzymes |  | 0.76 |  | 0.759 | 1.1 | 1.1 | > 100 | > 100 | > 63.1 | > 63 |  |  |  |  |  |  |  | 
11 | Cc1cc(C(C#N)c2ccc(Cl)cc2)c(Cl)cc1NC(=O)c1cc(I)cc(I)c1O (centres unmarked) [Closantel, closantel, reference compound] | inhibit native MDH | 0.79 ± 0.17 | 0.47 |  | 0.468 |  | 0.468 | > 100 | > 100 |  |  |  |  |  |  |  |  |  | 
12 | COc1c(Br)cc(Br)cc1C(=O)Nc1ccc(Sc2nc3ccccc3s2)cc1 [Compound 33, N-(4-(Benzo[d]thiazol-2-ylthio)phenyl)-3,5-dibromo-2-methoxybenzamide] |  |  |  |  |  |  |  |  |  | > 63.1 | > 63 | > 100 | > 100 |  | > 100 | > 100 | > 100 |  | 
13 | COc1ccc(Br)cc1C(=O)Nc1ccc(Sc2nc3ccccc3s2)c(Cl)c1 [Compound 31, N-(4-(Benzo[d]thiazol-2-ylthio)-3-chlorophenyl)-5-bromo-2-methoxybenzamide] |  |  |  |  |  |  |  |  |  | > 63.1 | > 63 | > 100 | > 100 |  | > 100 | > 100 | > 100 |  | 
14 | O=C(Nc1ccccc1)c1cc(Br)cc(Br)c1O [Compound 13, 3,5-Dibromo-2-hydroxy-N-phenylbenzamide] |  |  | 1.2 |  | 1.23 | 2 | 2 | > 100 | > 100 | 50.1 | 51 |  |  |  |  |  |  |  | 
15 | O=C(Nc1ccc(Sc2nc3ccccc3s2)cc1)c1cc(Br)cc(Br)c1 [Compound 20, N-(4-(Benzo[d]thiazol-2-ylthio)phenyl)-3,5-dibromobenzamide] |  |  |  |  |  |  |  |  |  | > 63.1 | > 63 | > 100 | > 100 |  | > 100 | > 100 | > 100 |  | 
16 | O=C(Nc1ccccc1)c1ccccc1O [Compound 16, 2-Hydroxy-N-phenylbenzamide] |  |  | 28 |  | 27.5 | 51 | 51.3 | > 100 | > 100 |  |  |  |  |  |  |  |  | > 63 | > 63.1
17 | COc1c(Br)cccc1C(=O)Nc1ccc(Sc2nc3ccccc3s2)c(Cl)c1 [Compound 30, N-(4-(Benzo[d]thiazol-2-ylthio)-3-chlorophenyl)-3-bromo-2-methoxybenzamide] |  |  |  |  |  |  |  |  |  | > 63.1 | > 63 | > 100 | > 100 |  | > 100 | > 100 | > 100 |  | 
